Experimental data taken from US4895956A, “3-aroyl-6,7-dihydro-5H-pyrrolo(1,2-c)imidazole-7-carboxylic acid derivatives” (Hisamitsu Pharmaceutical Co., Ltd., priority 1987, dated 1990).

Experiments:
gastric mucous = experiment: Gastric mucous damage test in rats; assay type: in vivo, rat (male rats of Wistar strain); settings: oral, rats fasted 18 hours
Protocol: Gastric mucous damage test in rats
Using male rats of Wistar strain each weighing approximately 160 g, compounds of the present invention were orally administered to the rats previously fasting for 18 hours. Three point five hours later, 1 ml/rat of a 5% Pontamin Sky Blue solution was intravenously injected to the rats. Rats were dissected to remove the stomachs therefrom. A 10 ml of 70% ethanol was injected into the stomachs to fix them, and the stomachs were cut and washed with a 10% hydrogen peroxide/ethanol mixed liquid and then visually observed to fine whether ulcers were formed therein.

[1] = tested on: carrageenin-induced paw edema; experiment: Inhibitory actions on carrageenin-induced paw edema; assay type: in vivo, rat (male rats of Wistar strain); settings: 50 mg/kg, oral, 60 min before 1% λ-carrageenin; 3 hours after induction; vs control group
Protocol: Inhibitory actions on carrageenin-induced paw edema
Using male rats of Wistar strain each weighing approximately 150 g, 0.1 ml of 1% λ-carrageenin was subcutaneously injected into the paw of each rat to induce the reaction. Since then, the volume of paw edema was measured in time course. Each compound of the present invention was orally administered to the rats 60 minutes before the induction of the reaction. As shown in the following Table, the results were expressed in terms of inhibitory percentage in comparison with those in control group at 3 hours after the induction of the reaction.

[2] = Acute toxicity test in rats; settings: in vivo; male rat, oral, 14 days observation
Text: (§1) Acute toxicity test in rats and mice
(§2) Each group consisting 8 animals such as male Wistar rats weighing about 120 g and male ddY mice weighing about 25 g was used. Compounds of the present invention were orally administered to the animals. General symptoms, changes in body weight and lethality of the test animals had been observed over a period of time for 14 days after the oral administration.

[3] = Acute toxicity test in mice; settings: in vivo; male mouse, oral, 14 days observation
Text: as §1, §2

[4] = tested on: writhing induced by acetic acid; experiment: Inhibitory actions on the writhing induced by acetic acid in mice; assay type: in vivo, mouse (male ddY strain mice); settings: 50 mg/kg, oral, 30 min before 0.6% acetic acid; writhing counted for 10 min, 5 min after acetic acid; vs control group
Protocol: Inhibitory actions on the writhing induced by acetic acid in mice
Male ddY strain mice weighing 20-24 g were used a group consisting 7-9 animals. Each compound was orally administered to mice. Thirty minutes later, 0.6% acetic acid was abdominally administered at a dose of 0.1 ml/10 g. The number of writhing was counted 5 minutes after the administration of the acetic acid for 10 minutes. The inhibitory percentage were determined by comparing the number of writhing to the control group.

Row | SMILES | Ulcer formation (gastric mucous; 100 mg/kg) | Inhibition (inhibitory percentage of paw edema) [1] | LD50 at 336 h [2] | LD50 at 336 h [3] | Inhibition (inhibitory percentage of writhing) [4] | Ulcer formation (gastric mucous; 10 mg/kg)
1 | CC(=O)Oc1ccccc1C(=O)O [Aspirin, reference compound] | 6/6 |  |  |  |  | 
2 | O=C(c1ccccc1)c1nc(Br)c2n1CCC2C(=O)O (stereo not drawn) [Compound of Example 5, 3-benzoyl-1-bromo-6,7-dihydro-5H-pyrrolo[1,2-c]imidazole-7-carboxylic acid] | 0/6 | 48.4% | > 5000 mg/kg | > 3000 mg/kg | 87.5% | 
3 | O=C(c1ccccc1Cl)c1nc(Br)c2n1CCC2C(=O)O (stereo not drawn) [Compound of Example 9] | 0/6 | 50.1% | > 5000 mg/kg | > 3000 mg/kg | 83.3% | 
4 | COc1ccc(C(=O)c2ncc3n2CCC3C(=O)O)cc1 (stereo not drawn) [Compound of Example 15] | 0/6 | 53.9% | > 5000 mg/kg | > 3000 mg/kg | 86.3% | 
5 | O=C(c1ccc(Cl)cc1)c1nc(Br)c2n1CCC2C(=O)O (stereo not drawn) [Compound of Example 16] | 0/6 | 50.7% | > 5000 mg/kg | > 3000 mg/kg | 84.5% | 
6 | CC(C)c1ccc(C(=O)c2ncc3n2CCC3C(=O)O)cc1 (stereo not drawn) [Compound of Example 24] | 0/6 | 51.6% | > 5000 mg/kg | > 3000 mg/kg | 79.3% | 
7 | COc1ccc2c(c1)c(CC(=O)O)c(C)n2C(=O)c1ccc(Cl)cc1 [Indomethacine, reference compound] |  |  |  |  |  | 6/6
